Reference: ChEMBL document CHEMBL1136200, “Potent and selective inhibitors of platelet-derived growth factor receptor phosphorylation. Part 4: structure-activity relationships for substituents on the quinazoline moiety of 4-[4-(N-substituted(thio)carbamoyl)-1-piperazinyl]-6,7-dimethoxyquinazoline derivatives” (Bioorg Med Chem Lett, 2003)

target: Platelet-derived growth factor receptor beta (Homo sapiens, UniProt P09619); test: Inhibitory concentration against platelet-derived growth factor receptor beta phosphorylation in CHO cells; assay type: functional, cell-based, Cricetulus griseus
Sequence (P09619 whole entry): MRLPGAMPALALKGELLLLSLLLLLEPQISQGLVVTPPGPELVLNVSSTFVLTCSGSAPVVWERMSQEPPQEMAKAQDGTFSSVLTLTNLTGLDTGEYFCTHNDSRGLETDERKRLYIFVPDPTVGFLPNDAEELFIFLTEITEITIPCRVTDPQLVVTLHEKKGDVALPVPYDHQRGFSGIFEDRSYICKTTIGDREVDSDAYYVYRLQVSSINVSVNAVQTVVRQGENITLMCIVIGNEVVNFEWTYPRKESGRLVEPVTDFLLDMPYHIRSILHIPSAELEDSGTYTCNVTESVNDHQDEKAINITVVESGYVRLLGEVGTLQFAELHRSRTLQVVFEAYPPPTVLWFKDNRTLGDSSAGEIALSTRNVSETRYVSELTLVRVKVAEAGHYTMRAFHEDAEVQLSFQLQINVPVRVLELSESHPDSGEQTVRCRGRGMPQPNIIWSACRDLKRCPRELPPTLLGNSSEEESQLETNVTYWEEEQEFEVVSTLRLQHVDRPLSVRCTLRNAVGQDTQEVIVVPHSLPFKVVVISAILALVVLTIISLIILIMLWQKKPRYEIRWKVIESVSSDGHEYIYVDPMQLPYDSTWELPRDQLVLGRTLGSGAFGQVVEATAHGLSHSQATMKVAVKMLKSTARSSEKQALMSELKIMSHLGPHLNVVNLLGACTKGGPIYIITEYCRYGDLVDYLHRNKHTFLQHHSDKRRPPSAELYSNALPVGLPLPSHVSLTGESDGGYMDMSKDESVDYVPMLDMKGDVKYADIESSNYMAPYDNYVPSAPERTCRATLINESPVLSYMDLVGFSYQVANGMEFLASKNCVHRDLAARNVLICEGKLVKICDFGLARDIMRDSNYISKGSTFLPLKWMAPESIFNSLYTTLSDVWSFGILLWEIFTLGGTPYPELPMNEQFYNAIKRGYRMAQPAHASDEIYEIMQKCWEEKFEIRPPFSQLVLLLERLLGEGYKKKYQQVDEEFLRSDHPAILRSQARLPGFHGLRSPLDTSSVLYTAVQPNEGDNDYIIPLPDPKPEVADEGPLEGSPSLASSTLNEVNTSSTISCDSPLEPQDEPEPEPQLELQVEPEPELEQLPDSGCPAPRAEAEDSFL

Compound	IC50
O=C(Nc1ccc(Oc2ccccc2)cc1)N1CCN(c2ncnc3cc([N+](=O)[O-])ccc23)CC1	2880 nM
O=[N+]([O-])c1cc2c(N3CCN(C(=S)NCc4ccccc4)CC3)ncnc2cc1Cl	> 30000 nM
Nc1cc2c(N3CCN(C(=S)NCc4ccccc4)CC3)ncnc2cc1Cl	160 nM
Cc1cccc2ncnc(N3CCN(C(=O)Nc4ccc(Oc5ccccc5)cc4)CC3)c12	6250 nM
COc1cccc2c(N3CCN(C(=O)Nc4ccc(Oc5ccccc5)cc4)CC3)ncnc12	10700 nM
O=C(Nc1ccc(Oc2ccccc2)cc1)N1CCN(c2ncnc3ccc(Br)cc23)CC1	1380 nM
O=C(Nc1ccc(Oc2ccccc2)cc1)N1CCN(c2ncnc3ccc([N+](=O)[O-])cc23)CC1	29700 nM
CC(C)Oc1ccc2c(N3CCN(C(=O)Nc4ccc(Oc5ccccc5)cc4)CC3)ncnc2c1	1120 nM

Further lines, results first:

IC50	Compound
> 30000 nM	O=C(O)c1ccc2c(N3CCN(C(=O)Nc4ccc(Oc5ccccc5)cc4)CC3)ncnc2c1
> 1000 nM	CC(=O)Nc1cc2c(N3CCN(/C(S)=N\Cc4ccccc4)CC3)ncnc2cc1Cl
5170 nM	O=C(Nc1ccc(Oc2ccccc2)cc1)N1CCN(c2ncnc3ccc(I)cc23)CC1
> 750 nM	COC(=O)c1ccc2c(N3CCN(C(=O)Nc4ccc(Oc5ccccc5)cc4)CC3)ncnc2c1
970 nM	O=C(Nc1ccc(Oc2ccccc2)cc1)N1CCN(c2ncnc3cc(F)c(F)cc23)CC1
5160 nM	S=C(NCc1ccccc1)N1CCN(c2ncnc3cc(Cl)ccc23)CC1
350 nM	O=C(Nc1ccc(Oc2ccccc2)cc1)N1CCN(c2ncnc3ccc(F)cc23)CC1
> 100 nM	Cc1ccc2c(N3CCN(C(=O)Nc4ccc(Oc5ccccc5)cc4)CC3)ncnc2c1
1160 nM	Nc1cc2ncnc(N3CCN(C(=O)Nc4ccc(Oc5ccccc5)cc4)CC3)c2cc1[N+](=O)[O-]
540 nM	Cc1ccc2ncnc(N3CCN(C(=O)Nc4ccc(Oc5ccccc5)cc4)CC3)c2c1
1320 nM	O=C(Nc1ccc(Oc2ccccc2)cc1)N1CCN(c2ncnc3cc(Cl)c([N+](=O)[O-])cc23)CC1
